One compound from patent publication US10179770B2, “Quinolines derivatives as novel anticancer agents” (GENOSCIENCE PHARMA, priority 2013, dated 2019) can be followed below.

What all share (test): NCI-60 screen (SRB)
Holding throughout (assay type): cell-based

One experiment concerns HCC-2998. Particulars: HCC-2998 (Colon); 10 μM. On the procedure:
(§1) The human tumor cell lines of the cancer screening panel are grown in RPMI 1640 medium containing 5% fetal bovine serum and 2 mM L-glutamine. For a typical screening experiment, cells are inoculated into 96 well microtiter plates in 100 μL at plating densities ranging from 5,000 to 40,000 cells/well depending on the doubling time of individual cell lines. After cell inoculation, the microtiter plates are incubated at 37° C., 5% CO2, 95% air and 100% relative humidity for 24 h prior to addition of experimental drugs.
(§2) After 24 h, two plates of each cell line are fixed in situ with TCA, to represent a measurement of the cell population for each cell line at the time of drug addition (Tz). Experimental drug is solubilized in dimethyl sulfoxide at 400-fold the desired final maximum test concentration and stored frozen prior to use. At the time of drug addition, an aliquot of frozen concentrate is thawed and diluted to twice the desired final maximum test concentration with complete medium containing 50 μg/ml gentamicin. Additional four, 10-fold or ½ log serial dilutions are made to provide a total of five drug concentrations plus control. Aliquots of 100 μl of these different drug dilutions are added to the appropriate microtiter wells already containing 100 μl of medium, resulting in the required final drug concentrations.
(§3) Following drug addition, the plates are incubated for an additional 48 h at 37° C., 5% CO2, 95% air, and 100% relative humidity. For adherent cells, the assay is terminated by the addition of cold TCA. Cells are fixed in situ by the gentle addition of 50 μl of cold 50% (w/v) TCA (final concentration, 10% TCA) and incubated for 60 minutes at 4° C. The supernatant is discarded, and the plates are washed five times with tap water and air dried. Sulforhodamine B (SRB) solution (100 μl) at 0.4% (w/v) in 1% acetic acid is added to each well, and plates are incubated for 10 minutes at room temperature. After staining, unbound dye is removed by washing five times with 1% acetic acid and the plates are air dried. Bound stain is subsequently solubilized with 10 mM trizma base, and the absorbance is read on an automated plate reader at a wavelength of 515 nm. For suspension cells, the methodology is the same except that the assay is terminated by fixing settled cells at the bottom of the wells by gently adding 50 μl of 80% TCA (final concentration, 16% TCA). Using the seven absorbance measurements [time zero, (Tz), control growth, (C), and test growth in the presence of drug at the five concentration levels (Ti)], the percentage growth is calculated at each of the drug concentrations levels.
(§4) Percentage growth inhibition is calculated as: [(Ti−Tz)/(C−Tz)]×100 for concentrations for which Ti>/=Tz (1) [(Ti−Tz)/Tz]×100 for concentrations for which Ti<Tz (2)
(§5) Growth inhibition of 50% (GI50) is calculated from [(Ti−Tz)/(C−Tz)]×100=50 (3)
(§6) which is the drug concentration resulting in a 50% reduction in the net protein increase (as measured by SRB staining) in control cells during the drug incubation.
(§7) The drug concentration resulting in total growth inhibition (TGI) is calculated from Ti=Tz (4)
(§8) The LC50 (concentration of drug resulting in a 50% reduction in the measured protein at the end of the drug treatment as compared to that at the beginning) indicating a net loss of cells following treatment is calculated from [(Ti−Tz)/Tz]×100=−50 (5)
(§9) Values are calculated for each of these three parameters if the level of activity is reached; however, if the effect is not reached or is exceeded, the value for that parameter is expressed as greater or less than the maximum or minimum concentration tested.

The next experiment concerns CCRF-CEM. Particulars: CCRF-CEM (Leukemia); 10 μM. On the procedure:
as §1, §2, §3, §4, §5, §6, §7, §8, §9

The subject of the next experiment is A549/ATCC. Particulars: A549/ATCC (Non-Small Cell Lung); 10 μM. On the procedure: as §1, §2, §3, §4, §5, §6, §7, §8, §9
For a further experiment, the system named is SF-539. Particulars: SF-539 (CNS); 10 μM. The method, then:
as §1, §2, §3, §4, §5, §6, §7, §8, §9

The next experiment concerns HOP-92. As to conditions: HOP-92 (Non-Small Cell Lung); 10 μM. On the procedure: as §1, §2, §3, §4, §5, §6, §7, §8, §9
In another experiment the test system is LOX IMVI. As to conditions: LOX IMVI (Melanoma); 10 μM. The method, then:
as §1, §2, §3, §4, §5, §6, §7, §8, §9

Another experiment has as its system NCI-H23. As to conditions: NCI-H23 (Non-Small Cell Lung); 10 μM. The method, then:
as §1, §2, §3, §4, §5, §6, §7, §8, §9

The next experiment deals with Colo205. Particulars: COLO205 (Colon); 10 μM. The method, then: as §1, §2, §3, §4, §5, §6, §7, §8, §9
A further experiment concerns SNB-75. As to conditions: SNB-75 (CNS); 10 μM. On the procedure:
as §1, §2, §3, §4, §5, §6, §7, §8, §9

In another experiment the test system is HS 578T. Particulars: HS 578T (Breast); 10 μM. The method, then:
as §1, §2, §3, §4, §5, §6, §7, §8, §9

In the next experiment the test system is SK-MEL-28. Particulars: SK-MEL-28 (Melanoma); 10 μM. On the procedure: as §1, §2, §3, §4, §5, §6, §7, §8, §9
In the next experiment the test system is UACC-257. Particulars: UACC-257 (Melanoma); 10 μM. On the procedure:
as §1, §2, §3, §4, §5, §6, §7, §8, §9

In a further experiment the test system is SN12C. As to conditions: SN12C (Renal); 10 μM. The method, then: as §1, §2, §3, §4, §5, §6, §7, §8, §9
In the next experiment the test system is SF-268. As to conditions: SF-268 (CNS); 10 μM. On the procedure: as §1, §2, §3, §4, §5, §6, §7, §8, §9
For the next experiment, the system named is T-47D. Particulars: T-47D (Breast); 10 μM. The method, then:
as §1, §2, §3, §4, §5, §6, §7, §8, §9

In another experiment the test system is SK-MEL-5. Particulars: SK-MEL-5 (Melanoma); 10 μM. The method, then:
as §1, §2, §3, §4, §5, §6, §7, §8, §9

Another experiment concerns HT29. As to conditions: HT29 (Colon); 10 μM. The method, then: as §1, §2, §3, §4, §5, §6, §7, §8, §9

Consider `CC(C)(C)NC1CCN(c2cc(-c3ccc(Cl)cc3)nc3ccccc23)CC1.Cl.Cl` [XII-4, 2-(4-chloro-phenyl)-4-(4-N-tert-butylamino-piperidin-1-yl)quinoline dihydrochloride], for which the “Growth percent at 10 μM” value is “++++ (cell growth 0 > % < 20)” in the experiment on HCC-2998; “+++ (cell growth 20 > % < 40)” in the experiment with CCRF-CEM; “++ (cell growth 40 > % < 60)” in the experiment with A549/ATCC; “++ (cell growth 40 > % < 60)” in the experiment with SF-539; “++ (cell growth 40 > % < 60)” in the experiment with HOP-92; “++++ (cell growth 0 > % < 20)” in the experiment on LOX IMVI. Further, the “Growth percent at 10 μM” value with NCI-H23 is recorded as “− (cell growth % > 80)”; in the experiment on Colo205, “×××× (cell growth −60 < % > −80)”; with SNB-75, “++ (cell growth 40 > % < 60)”; in the experiment with HS 578T, “+ (cell growth 60 > % < 80)”; with SK-MEL-28, “×××× (cell growth −60 < % > −80)”; in the experiment on UACC-257, “××× (cell growth −40 < % > −60)”. Further, the “Growth percent at 10 μM” value in the experiment with SN12C was “++ (cell growth 40 > % < 60)”; in the experiment with SF-268, “+ (cell growth 60 > % < 80)”; in the experiment with T-47D it was “++ (cell growth 40 > % < 60)”; in the experiment with SK-MEL-5 it was “++++ (cell growth 0 > % < 20)”; in the experiment on HT29, “× (cell growth 0 < % > −20)”.
